#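 Growth conditions: 96-well plates. Treatment: test compound, 48 hours, 5 concentrations. Analysis: linear interpolation between bracketing concentrations; unreached endpoints set to highest concentration. The concentration for full growth arrest is given as TGI.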
# Tests used:
# Experiment in all cases: growth of human tumour cells (NCI), 48 h
# 786-0 renal = system: 786-0 renal
# A498 renal = system: A498 renal
# A549 NSCLC = system: A549 NSCLC
# ACHN renal = system: ACHN renal
# BT-549 breast = system: BT-549 breast
# CAKI-1 renal = system: CAKI-1 renal
# COLO 205 colon = system: COLO 205 colon
# DU-145 prostate = system: DU-145 prostate
# EKVX NSCLC = system: EKVX NSCLC
# HCC-2998 colon = system: HCC-2998 colon
# HCT-116 colon = system: HCT-116 colon
# HCT-15 colon = system: HCT-15 colon
# HL-60(TB) leukemia = system: HL-60(TB) leukemia
# HOP-62 NSCLC = system: HOP-62 NSCLC
# HOP-92 NSCLC = system: HOP-92 NSCLC
# HS 578T breast = system: HS 578T breast
# HT29 colon = system: HT29 colon
# IGROV1 ovarian = system: IGROV1 ovarian
# K-562 leukemia = system: K-562 leukemia
# KM12 colon = system: KM12 colon
# LOX IMVI melanoma = system: LOX IMVI melanoma
# M14 melanoma = system: M14 melanoma
# MALME-3M melanoma = system: MALME-3M melanoma
# MCF7 breast = system: MCF7 breast
# MDA-MB-231 breast = system: MDA-MB-231 breast
# MDA-MB-435 = system: MDA-MB-435
# MDA-N = system: MDA-N
# MOLT-4 leukemia = system: MOLT-4 leukemia
# NCI-H226 lung = system: NCI-H226 lung
# NCI-H23 lung = system: NCI-H23 lung
# NCI-H460 lung = system: NCI-H460 lung
# NCI-H522 lung = system: NCI-H522 lung
# NCI/ADR-RES ovarian = system: NCI/ADR-RES ovarian
# OVCAR-3 ovarian = system: OVCAR-3 ovarian
# OVCAR-4 ovarian = system: OVCAR-4 ovarian
# OVCAR-5 ovarian = system: OVCAR-5 ovarian
# OVCAR-8 ovarian = system: OVCAR-8 ovarian
# PC-3 prostate = system: PC-3 prostate
# RPMI-8226 leukemia = system: RPMI-8226 leukemia
# RXF 393 renal = system: RXF 393 renal
# SF-268 CNS = system: SF-268 CNS
# SF-295 CNS = system: SF-295 CNS
# SF-539 CNS = system: SF-539 CNS
# SK-MEL-2 melanoma = system: SK-MEL-2 melanoma
# SK-MEL-28 melanoma = system: SK-MEL-28 melanoma
# SK-MEL-5 melanoma = system: SK-MEL-5 melanoma
# SK-OV-3 ovarian = system: SK-OV-3 ovarian
# SN12C renal = system: SN12C renal
# SNB-19 CNS = system: SNB-19 CNS
# SNB-75 CNS = system: SNB-75 CNS
# SR leukemia = system: SR leukemia
# SW-620 colon = system: SW-620 colon
# T-47D breast = system: T-47D breast
# TK-10 renal = system: TK-10 renal
# U251 CNS = system: U251 CNS
# UACC-257 melanoma = system: UACC-257 melanoma
# UACC-62 melanoma = system: UACC-62 melanoma
# UO-31 renal = system: UO-31 renal
smiles,measurement,setting,value
Oc1ccc(-c2nc3ccc4ccccc4c3c3c2CCCC3)c(O)c1,TGI,786-0 renal,24 µM
same,TGI,A498 renal,> 100 µM
same,TGI,A549 NSCLC,> 100 µM
same,TGI,ACHN renal,85 µM
same,TGI,BT-549 breast,> 100 µM
same,TGI,CAKI-1 renal,> 100 µM
same,TGI,COLO 205 colon,23.9 µM
same,TGI,DU-145 prostate,> 100 µM
same,TGI,EKVX NSCLC,> 100 µM
same,TGI,HCC-2998 colon,> 100 µM
same,TGI,HCT-116 colon,22.6 µM
same,TGI,HCT-15 colon,> 100 µM
same,TGI,HL-60(TB) leukemia,> 100 µM
same,TGI,HOP-62 NSCLC,> 100 µM
same,TGI,HOP-92 NSCLC,> 100 µM
same,TGI,HS 578T breast,88.9 µM
same,TGI,HT29 colon,25.4 µM
same,TGI,IGROV1 ovarian,> 56.5 µM
same,TGI,K-562 leukemia,> 100 µM
same,TGI,KM12 colon,> 100 µM
same,TGI,LOX IMVI melanoma,> 100 µM
same,TGI,M14 melanoma,35.9 µM
same,TGI,MALME-3M melanoma,> 59.1 µM
same,TGI,MCF7 breast,> 69.8 µM
same,TGI,MDA-MB-231 breast,37 µM
same,TGI,MDA-MB-435,> 63.7 µM
same,TGI,MDA-N,39.3 µM
same,TGI,MOLT-4 leukemia,> 100 µM
same,TGI,NCI-H226 lung,> 100 µM
same,TGI,NCI-H23 lung,> 100 µM
same,TGI,NCI-H460 lung,> 100 µM
same,TGI,NCI-H522 lung,41.1 µM
same,TGI,NCI/ADR-RES ovarian,> 100 µM
same,TGI,OVCAR-3 ovarian,> 100 µM
same,TGI,OVCAR-4 ovarian,> 100 µM
same,TGI,OVCAR-5 ovarian,49.1 µM
same,TGI,OVCAR-8 ovarian,> 68.1 µM
same,TGI,PC-3 prostate,> 100 µM
same,TGI,RPMI-8226 leukemia,> 100 µM
same,TGI,RXF 393 renal,> 84.3 µM
same,TGI,SF-268 CNS,> 72 µM
same,TGI,SF-295 CNS,> 74.1 µM
same,TGI,SF-539 CNS,> 73.2 µM
same,TGI,SK-MEL-2 melanoma,37.6 µM
same,TGI,SK-MEL-28 melanoma,> 50.6 µM
same,TGI,SK-MEL-5 melanoma,27.1 µM
same,TGI,SK-OV-3 ovarian,> 100 µM
same,TGI,SN12C renal,32.8 µM
same,TGI,SNB-19 CNS,71.2 µM
same,TGI,SNB-75 CNS,> 100 µM
same,TGI,SR leukemia,> 100 µM
same,TGI,SW-620 colon,> 68 µM
same,TGI,T-47D breast,> 100 µM
same,TGI,TK-10 renal,97.9 µM
same,TGI,U251 CNS,> 40.5 µM
same,TGI,UACC-257 melanoma,> 100 µM
same,TGI,UACC-62 melanoma,> 50.6 µM
same,TGI,UO-31 renal,> 100 µM
C/C(=N\NC(=S)Nc1ccccc1)c1nc2ncccc2[nH]1,TGI,786-0 renal,74 µM
same,TGI,A498 renal,33.1 µM
same,TGI,A549 NSCLC,> 100 µM
same,TGI,ACHN renal,47.8 µM
same,TGI,BT-549 breast,26.2 µM
same,TGI,CAKI-1 renal,> 100 µM
same,TGI,COLO 205 colon,> 100 µM
same,TGI,DU-145 prostate,18.2 µM
same,TGI,EKVX NSCLC,6.12 µM
same,TGI,HCC-2998 colon,20.5 µM
same,TGI,HCT-116 colon,14 µM
same,TGI,HCT-15 colon,19.8 µM
same,TGI,HL-60(TB) leukemia,> 100 µM
same,TGI,HOP-62 NSCLC,59 µM
same,TGI,HOP-92 NSCLC,> 100 µM
same,TGI,HS 578T breast,77.7 µM
same,TGI,HT29 colon,18.8 µM
same,TGI,IGROV1 ovarian,24.2 µM
same,TGI,K-562 leukemia,60.8 µM
same,TGI,KM12 colon,> 100 µM
same,TGI,LOX IMVI melanoma,15.8 µM
same,TGI,M14 melanoma,> 100 µM
same,TGI,MALME-3M melanoma,57.7 µM
same,TGI,MCF7 breast,20.3 µM
same,TGI,MDA-MB-231 breast,55.5 µM
same,TGI,MDA-MB-435,60.3 µM
same,TGI,MDA-N,> 100 µM
same,TGI,MOLT-4 leukemia,16.8 µM
same,TGI,NCI-H226 lung,13.2 µM
same,TGI,NCI-H23 lung,48.7 µM
same,TGI,NCI-H460 lung,13.8 µM
same,TGI,NCI-H522 lung,17.1 µM
same,TGI,NCI/ADR-RES ovarian,22 µM
same,TGI,OVCAR-3 ovarian,17.1 µM
same,TGI,OVCAR-4 ovarian,47.4 µM
same,TGI,OVCAR-5 ovarian,61 µM
same,TGI,OVCAR-8 ovarian,16 µM
same,TGI,PC-3 prostate,> 100 µM
same,TGI,RPMI-8226 leukemia,84.4 µM
same,TGI,SF-268 CNS,39 µM
same,TGI,SF-295 CNS,18.3 µM
same,TGI,SF-539 CNS,6.8 µM
same,TGI,SK-MEL-2 melanoma,47 µM
same,TGI,SK-MEL-28 melanoma,6.79 µM
same,TGI,SK-MEL-5 melanoma,15 µM
same,TGI,SK-OV-3 ovarian,> 100 µM
same,TGI,SN12C renal,36.3 µM
same,TGI,SNB-19 CNS,60.1 µM
same,TGI,SNB-75 CNS,79.2 µM
same,TGI,SR leukemia,> 100 µM
same,TGI,SW-620 colon,> 100 µM
same,TGI,T-47D breast,24 µM
same,TGI,U251 CNS,16.9 µM
same,TGI,UACC-257 melanoma,11.1 µM
same,TGI,UO-31 renal,7.47 µM
